As a reminder, the IC50 is the concentration needed to halve the response being measured.

Structures are written as SMILES.

This is an account of results in patent US10000507B2, “Furo- and thieno-pyridine carboxamide compounds useful as pim kinase inhibitors” (Incyte Corporation, priority 2013, dated 2018).

Holding throughout (format): biochemical
The target of experiment [1] is Pim-3 (Homo sapiens (Human), UniProt Q86V86). The experiment is described as follows: Pim-3 kinase assay. The conditions noted are these: 1 mM ATP, biotin-labeled BAD peptide substrate; read-out: Pim3 IC50. Put shortly: (§1)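 Biotin-BAD peptide ([…]) phosphorylated with 1 mM ATP by 2.5 pM Pim-1 or 1.25 pM Pim-3, 1 h at 25 °C in Tris pH 7.5, MgCl2, DTT buffer. EDTA stop with anti-phospho-BAD (Ser112) antibody and AlphaScreen streptavidin donor/Protein-A acceptor beads; signal read after 1 h dark incubation.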

In experiment [2] the target is Pim-2 (Homo sapiens (Human), UniProt Q9P1W9). The experiment is described as follows: Pim-2 kinase assay. Particulars: 1 mM ATP, fluorescein-labeled CREBtide peptide substrate; read-out: Pim2 IC50. Put shortly:
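TR-FRET assay: 1 nM Pim-2 with 0.05 μM fluorescein-CREBtide and 1 mM ATP in Tris pH 7.5, 5 mM MgCl2, 5 mM DTT, 2 h at 25 °C. EDTA stop, then Tb-anti-pCREB Ser133 antibody for 30 min before reading.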

In experiment [3] the target is Pim-1 (Homo sapiens (Human), UniProt P11309). The experiment is described as follows: Pim-1 kinase assay. Particulars: 1 mM ATP, biotin-labeled BAD peptide substrate; read-out: Pim1 IC50. The essentials: as §1
Pim-1, sequence (P11309 whole entry): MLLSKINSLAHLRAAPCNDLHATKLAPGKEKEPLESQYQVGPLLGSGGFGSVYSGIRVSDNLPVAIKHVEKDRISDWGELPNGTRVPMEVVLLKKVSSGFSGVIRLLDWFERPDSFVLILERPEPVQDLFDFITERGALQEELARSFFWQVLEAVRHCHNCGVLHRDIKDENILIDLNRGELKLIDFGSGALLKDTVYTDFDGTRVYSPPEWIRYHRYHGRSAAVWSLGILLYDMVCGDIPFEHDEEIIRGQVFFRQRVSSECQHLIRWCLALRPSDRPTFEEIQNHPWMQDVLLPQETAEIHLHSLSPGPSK

Pim-2, sequence (Q9P1W9 whole entry): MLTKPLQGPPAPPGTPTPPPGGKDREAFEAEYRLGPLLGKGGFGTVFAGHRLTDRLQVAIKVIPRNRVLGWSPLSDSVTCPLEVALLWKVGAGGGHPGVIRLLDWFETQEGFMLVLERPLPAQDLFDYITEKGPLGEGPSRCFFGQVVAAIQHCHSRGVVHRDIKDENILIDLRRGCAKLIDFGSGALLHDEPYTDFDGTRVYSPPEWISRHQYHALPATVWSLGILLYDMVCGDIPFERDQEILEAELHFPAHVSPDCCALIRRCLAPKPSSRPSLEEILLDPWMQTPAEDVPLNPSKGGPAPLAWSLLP

Turning to `CN1CCC(c2cnc3c(C(=O)Nc4cnn(C)c4N4C[C@@H](N)C[C@@H](C(F)(F)F)C4)c(N)oc3c2)CC1` [Example 94, 2-Amino-N-{5-[(3S,5R)-3-amino-5-(trifluoromethyl)piperidin-1-yl]-1-methyl-1H-pyrazol-4-yl}-6-(1-methylpiperidin-4-yl)furo[3,2-b]pyridine-3-carboxamide], the IC50 was at most 0.01 µM in experiment [1], 0.01 to 0.1 µM in experiment [2] and at most 0.01 µM in experiment [3].
In the case of `C[C@@H]1C[C@H](N)CN(c2ccncc2NC(=O)c2c(N)oc3cccnc23)C1` [Example 65, 2-amino-N-{4-[(3S,5R)-3-amino-5-methyl-piperidin-1-yl]pyridin-3-yl}-furo[3,2-b]pyridine-3-carboxamide], the IC50 is at most 0.01 µM in experiment [1], 0.01 to 0.1 µM in experiment [2] and at most 0.01 µM in experiment [3].
As to `CCOc1ccnc2c(C(=O)Nc3cnccc3N3CCC[C@H](N)C3)c(N)sc12` [Example 20, 2-Amino-N-{4-[(3S)-3-aminopiperidin-1-yl]pyridin-3-yl}-7-ethoxythieno[3,2-b]pyridine-3-carboxamide], the IC50 was at most 0.01 µM in experiment [1], 0.1 to 1 µM in experiment [2] and at most 0.01 µM in experiment [3].
Consider `CN1CC(c2cnc3c(C(=O)Nc4cnccc4N4CCC[C@H](N)C4)c(N)sc3c2)C1` [Example 31, 2-Amino-N-{4-[(3S)-3-aminopiperidin-1-yl]pyridin-3-yl}-6-(1-methylazetidin-3-yl)thieno[3,2-b]pyridine-3-carboxamide], for which the figures for the 50% inhibitory concentration (IC50) in experiment [1], in experiment [2] and in experiment [3] were at most 0.01 µM, 0.1 to 1 µM and at most 0.01 µM, respectively.
On to `Nc1oc2cc(C3CCC3)cnc2c1C(=O)Nc1cnccc1N1C[C@@H](N)C[C@@H](C(F)(F)F)C1` [Example 98, 2-Amino-N-{4-[(3S,5R)-3-amino-5-(trifluoromethyl)piperidin-1-yl]pyridin-3-yl}-6-cyclobutylfuro[3,2-b]pyridine-3-carboxamide], for which the concentration for half-maximal inhibition (IC50) in experiment [1], in experiment [2] and in experiment [3] was at most 0.01 µM in each case.
Consider `Nc1oc2cc(C3CCOCC3)cnc2c1C(=O)Nc1cnsc1N1C[C@@H](N)C[C@@H](C(F)(F)F)C1` [Example 91, 2-Amino-N-{5-[(3S,5R)-3-amino-5-(trifluoromethyl)piperidin-1-yl]isothiazol-4-yl}-6-(tetrahydro-2H-pyran-4-yl)furo[3,2-b]pyridine-3-carboxamide], for which the IC50 is at most 0.01 µM in experiment [1], 0.01 to 0.1 µM in experiment [2] and at most 0.01 µM in experiment [3].
For `Cn1ncc(NC(=O)c2c(N)sc3ccc(Cl)nc23)c1N1CCCC(N)CC1` (stereo not drawn) [Example 39, 2-Amino-N-[5-(4-aminoazepan-1-yl)-1-methyl-1H-pyrazol-4-yl]-5-chlorothieno[3,2-b]pyridine-3-carboxamide], the IC50 was at most 0.01 µM in experiment [1], 0.1 to 1 µM in experiment [2] and at most 0.01 µM in experiment [3].
For the molecule `Nc1sc2cc(F)cnc2c1C(=O)Nc1cnccc1N1CCC[C@H](N)C1` [Example 36, 2-Amino-N-{4-[(3S)-3-aminopiperidin-1-yl]pyridin-3-yl}-6-fluoro-thieno[3,2-b]pyridine-3-carboxamide], the IC50 is at most 0.01 µM in experiment [1], 0.1 to 1 µM in experiment [2] and at most 0.01 µM in experiment [3].
Consider `CCc1cnc2c(C(=O)Nc3cnccc3N3C[C@@H](N)C[C@@H](C(F)(F)F)C3)c(N)oc2c1` [Example 118, 2-Amino-N-{4-[(3S,5R)-3-amino-5-(trifluoromethyl)piperidin-1-yl]pyridin-3-yl}-6-ethylfuro[3,2-b]pyridine-3-carboxamide], for which the IC50 in experiment [1], in experiment [2] and in experiment [3] was at most 0.01 µM in each case.
Consider `Nc1oc2cc(CN3CC(F)(F)C3)cnc2c1C(=O)Nc1cnccc1N1C[C@@H](N)C[C@@H](C(F)(F)F)C1` [Example 100, 2-Amino-N-{4-[(3S,5R)-3-amino-5-(trifluoromethyl)piperidin-1-yl]pyridin-3-yl}-6-[(3,3-difluoroazetidin-1-yl)methyl]furo[3,2-b]pyridine-3-carboxamide], for which the IC50 in experiment [1] is at most 0.01 µM; in experiment [2] it was 0.01 to 0.1 µM; in experiment [3] it was at most 0.01 µM.
Take `CN1CCC(c2cnc3c(C(=O)Nc4cnccc4N4C[C@@H](N)C[C@@H](C(F)(F)F)C4)c(N)oc3c2)CC1` [Example 93, 2-Amino-N-{4-[(3S,5R)-3-amino-5-(trifluoromethyl)piperidin-1-yl]pyridin-3-yl}-6-(1-methylpiperidin-4-yl)furo[3,2-b]pyridine-3-carboxamide]: the IC50 in experiment [1] is at most 0.01 µM; in experiment [2], 0.01 to 0.1 µM; in experiment [3], at most 0.01 µM.
In the case of `CC(C)c1cnc2c(C(=O)Nc3cnccc3N3C[C@@H](N)[C@H](O)[C@@H](C)C3)c(N)oc2c1` [Example 75, 2-Amino-N-{4-[(3R,4R,5S)-3-amino-4-hydroxy-5-methylpiperidin-1-yl]pyridin-3-yl}-6-isopropylfuro[3,2-b]pyridine-3-carboxamide], the IC50 in experiment [1] was at most 0.01 µM; in experiment [2], 0.01 to 0.1 µM; in experiment [3], at most 0.01 µM.
For `CC(C)c1cnc2c(C(=O)Nc3cnccc3[C@@H]3C[C@H](C)C[C@H](N)C3)c(N)oc2c1` [Example 130, 2-Amino-N-{4-[(1R,3S,5S)-3-amino-5-methylcyclohexyl]pyridin-3-yl}-6-isopropylfuro[3,2-b]pyridine-3-carboxamide], the 50% inhibitory concentration (IC50) in experiment [1], in experiment [2] and in experiment [3] was at most 0.01 µM in each case.
Take `C[C@@H]1C[C@H](N)CN(c2ccncc2NC(=O)c2c(N)oc3cc(C4CCC4)cnc23)C1` [Example 97, 2-Amino-N-{4-[(3S,5R)-3-amino-5-methylpiperidin-1-yl]pyridin-3-yl}-6-cyclobutylfuro[3,2-b]pyridine-3-carboxamide]: the IC50 in experiment [1], in experiment [2] and in experiment [3] was at most 0.01 µM each time.
As for `Cc1noc(C)c1-c1cnc2c(C(=O)Nc3cnn(C)c3N3CCCC(N)CC3)c(N)sc2c1` (stereo not drawn) [Example 29, 2-Amino-N-[5-(4-aminoazepan-1-yl)-1-methyl-1H-pyrazol-4-yl]-6-(3,5-dimethylisoxazol-4-yl)-thieno[3,2-b]pyridine-3-carboxamide], the values for the IC50 in experiment [1], in experiment [2] and in experiment [3] were at most 0.01 µM, 0.1 to 1 µM and at most 0.01 µM, respectively.
`Cn1ncc(NC(=O)c2c(N)sc3cccnc23)c1N1CCC[C@H](N)C1` [Example 2, 2-Amino-N-{5-[(3S)-3-aminopiperidin-1-yl]-1-methyl-1H-pyrazol-4-yl}thieno[3,2-b]pyridine-3-carboxamide]: the IC50 in experiment [1] is at most 0.01 µM; in experiment [2], 0.1 to 1 µM; in experiment [3], at most 0.01 µM.
With `CC(C)c1cnc2c(C(=O)Nc3cnccc3N3CCC[C@H](N)C3)c(N)oc2c1` [Example 50, 2-amino-N-{4-[(3S)-3-aminopiperidin-1-yl]pyridin-3-yl}-6-(iso-propyl)furo[3,2-b]pyridine-3-carboxamide], the half-maximal inhibitory concentration (IC50) was at most 0.01 µM in experiment [1], 0.01 to 0.1 µM in experiment [2] and at most 0.01 µM in experiment [3].
As for `Cn1ncc(NC(=O)c2c(N)oc3cc(C(F)(F)F)cnc23)c1N1CCCC(N)CC1` (stereo not drawn) [Example 56, 2-amino-N-[5-(4-aminoazepan-1-yl)-1-methyl-1H-pyrazol-4-yl]-6-trifluoromethyl-furo[3,2-b]pyridine-3-carboxamide], the IC50 in experiment [1] was at most 0.01 µM; in experiment [2], 0.01 to 0.1 µM; in experiment [3], at most 0.01 µM.
For `Nc1sc2cc(-c3c(F)cccc3F)cnc2c1C(=O)Nc1cnccc1N1CCC[C@H](N)C1` [Example 26, 2-Amino-N-{4-[(3S)-3-aminopiperidin-1-yl]pyridin-3-yl}-6-(2,6-difluorophenyl)-thieno[3,2-b]pyridine-3-carboxamide], the IC50 is at most 0.01 µM in experiment [1], 0.01 to 0.1 µM in experiment [2] and at most 0.01 µM in experiment [3].
Take `Cc1ccc2sc(N)c(C(=O)Nc3cnccc3N3CCC[C@H](N)C3)c2n1` (stereo in doubt) [Example 42, 2-Amino-N-[4-(3-aminopiperidin-1-yl)pyridin-3-yl]-5-methylthieno[3,2-b]pyridine-3-carboxamide]: the IC50 was over 0.04 µM in experiment [1], over 2 µM in experiment [2] and over 0.04 µM in experiment [3].
In the case of `COCc1cnc2c(C(=O)Nc3cnccc3N3CCC[C@H](N)C3)c(N)sc2c1` [Example 34, 2-Amino-N-{4-[(3S)-3-aminopiperidin-1-yl]pyridin-3-yl}-6-(methoxymethyl)thieno[3,2-b]pyridine-3-carboxamide], the results for the IC50 in experiment [1], in experiment [2] and in experiment [3] were at most 0.01 µM, 0.1 to 1 µM and at most 0.01 µM, respectively.
On to `C[C@@H]1C[C@H](N)CN(c2ccncc2NC(=O)c2c(N)oc3cc(-c4cnn(C)c4)cnc23)C1` [Example 110, 2-Amino-N-{4-[(3S,5R)-3-amino-5-methylpiperidin-1-yl]pyridin-3-yl}-6-(1-methyl-1H-pyrazol-4-yl)furo[3,2-b]pyridine-3-carboxamide], for which the IC50 in experiment [1] was at most 0.01 µM; in experiment [2], 0.01 to 0.1 µM; in experiment [3], at most 0.01 µM.
For `COCCCc1cnc2c(C(=O)Nc3cnccc3N3C[C@@H](N)C[C@@H](C(F)(F)F)C3)c(N)oc2c1` [Example 131, 2-Amino-N-{4-[(3S,5R)-3-amino-5-(trifluoromethyl)piperidin-1-yl]pyridin-3-yl}-6-(3-methoxypropyl)furo[3,2-b]pyridine-3-carboxamide], the IC50 in experiment [1], in experiment [2] and in experiment [3] was at most 0.01 µM throughout.
